Test results: publication PMC7148433 (Biochemical Journal, 2020)

Target: T1, lipocalin-type prostaglandin D synthase (L-PGDS) (Homo sapiens, UniProt P41222)
T1 sequence (P41222 23-190): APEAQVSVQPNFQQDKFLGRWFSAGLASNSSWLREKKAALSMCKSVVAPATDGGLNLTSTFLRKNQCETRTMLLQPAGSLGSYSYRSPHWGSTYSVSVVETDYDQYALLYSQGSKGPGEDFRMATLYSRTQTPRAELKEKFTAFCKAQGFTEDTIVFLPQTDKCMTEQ
Assay: tryptophan fluorescence quenching
Format: binding

Kd: 0.04 µM
SMILES: C=CC1=C(C)C2=Cc3c(C=C)c(C)c4[n]3[Fe][n]3c(c(C)c(CCC(=O)O)c3=CC3=NC(=C4)C(C)=C3CCC(=O)O)=CC1=N2 [heme]
